The results in this text go back to patent US20240287138A1, “CYCLIC PEPTIDES FOR INHIBITING TNF RECEPTOR 1 ACTIVITY” (Merck Sharp & Dohme LLC, priority 2023, published 2024).

Test [1] concerns the target T1, TNFα-induced NF-κB signal transduction pathway (TNFR1 signaling) in THP-1 cells (Homo sapiens, UniProt P19438).
T1 sequence (P19438 30-455): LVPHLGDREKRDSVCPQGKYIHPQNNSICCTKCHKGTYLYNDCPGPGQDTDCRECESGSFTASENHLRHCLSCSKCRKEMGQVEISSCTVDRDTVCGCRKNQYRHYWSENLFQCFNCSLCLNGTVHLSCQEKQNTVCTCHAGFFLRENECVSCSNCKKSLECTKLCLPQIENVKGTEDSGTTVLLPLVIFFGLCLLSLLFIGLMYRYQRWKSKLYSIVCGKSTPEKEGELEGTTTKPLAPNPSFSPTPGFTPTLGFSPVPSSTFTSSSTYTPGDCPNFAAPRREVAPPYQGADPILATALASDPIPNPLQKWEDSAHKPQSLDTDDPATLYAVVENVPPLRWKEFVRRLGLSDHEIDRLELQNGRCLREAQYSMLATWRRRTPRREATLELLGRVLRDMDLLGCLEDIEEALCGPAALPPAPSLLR
The experiment in a line: THP-1 Lucia NF-κB reporter cell assay, inhibition of TNFα-induced NF-κB signaling. The test is classed as cell-based. To be noted: THP-1 NF-κB Lucia reporter cells, 10 ng/mL TNFα, 16-18 h, secreted luciferase; read-out: THP-1 IC50. In a few lines:
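Read-out: secreted Lucia luciferase luminescence (QUANTI-Luc) from supernatant after 16-18 h, 37 °C, 10 ng/mL rhTNFα. Peptide pretreatment 1 h at 37 °C; 20,000 cells/well, selection antibiotics omitted. IC50 via 4-parameter logistic model against min/max controls.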

In test [2] the target is T2, human TNFR1 extracellular domain (ECD) protein (Homo sapiens, UniProt P19438).
T2 construct: HRV 3C protease cleavage site (C); 6His (C, cleaved yes); made in house; host or cells: Sf21 insect cells (baculovirus), secreted
T2 sequence (P19438 30-211): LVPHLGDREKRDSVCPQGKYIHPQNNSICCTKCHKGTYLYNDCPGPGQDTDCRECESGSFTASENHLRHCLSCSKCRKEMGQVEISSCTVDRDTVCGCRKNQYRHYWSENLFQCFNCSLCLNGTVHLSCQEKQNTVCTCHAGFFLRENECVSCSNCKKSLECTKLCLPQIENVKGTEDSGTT
In words: SPR binding affinity to captured human TNFR1 ECD. In a few lines: (§1)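 Peptides are tested against captured biotin-tagged human TNFR1 ECD, with parallel TNFR2 ECD binding to check selectivity. Buffer: 10 mM HEPES pH 7.4, 150 mM NaCl, 3 mM EDTA, 0.05% P20, 2% DMSO.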
A general note: In SPR one partner is held on a chip, and binding of the other changes the refractive index at the surface.

Another test addresses T3, human TNFR2 ECD protein (Homo sapiens, UniProt P20333).
T3 construct: HRV 3C protease cleavage site (C); 6His (C, cleaved yes); made in house; host or cells: Sf21 insect cells (baculovirus), secreted
T3 sequence (P20333 23-257): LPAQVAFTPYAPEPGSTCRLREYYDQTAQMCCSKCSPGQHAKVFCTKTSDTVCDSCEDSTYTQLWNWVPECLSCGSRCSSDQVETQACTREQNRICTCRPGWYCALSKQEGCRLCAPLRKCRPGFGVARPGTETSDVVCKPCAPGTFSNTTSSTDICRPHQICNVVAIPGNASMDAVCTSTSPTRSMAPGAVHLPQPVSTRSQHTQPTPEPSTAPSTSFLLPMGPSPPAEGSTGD
In words: SPR off-target binding (selectivity) to human TNFR2 ECD. In a few lines: as §1

Numbered stars: 1 amine (or outer) side, 2 acyl side, 3 side chain; on linkers, the order of the positions; unused ones are H or OH. Bridge positions count the residues as written; N and C are the ends. Square brackets hold non-standard residues; d marks the D form. Peptide text beside a SMILES is read from it. Trp(βS-Me,7-OMe) = COc1cccc2c([C@H](C)[C@H](N)C(=O)O)c[nH]c12; X17 = Cc1[nH]c2ccccc2c1[C@H](C)[C@H](N[*:1])C(=O)[*:2]; X12 = C[C@@H](c1ccc(O)cc1)[C@H](N[*:1])C(=O)[*:2]; Trp(7-Cl) = N[C@@H](Cc1c[nH]c2c(Cl)cccc12)C(=O)O; Phe(4-CONH2) = NC(=O)c1ccc(C[C@H](N)C(=O)O)cc1; Phe(4-COOH) = N[C@@H](Cc1ccc(C(=O)O)cc1)C(=O)O; Trp(7-aza) = N[C@@H](Cc1c[nH]c2ncccc12)C(=O)O; Pip(5R-OH) = O=C(O)[C@@H]1CC[C@@H](O)CN1; X1 = O=C([C@@H]1CC[C@H](N[*:1])C1)[*:2]; X14 = CC(C)CCC[C@H](N[*:1])C(=O)[*:2]; Pip(4-aza) = O=C(O)[C@@H]1CNCCN1; 4Pal = N[C@@H](Cc1ccncc1)C(=O)O; NMeE = CN[C@@H](CCC(=O)O)C(=O)O; Lys(Me) = CNCCCC[C@H](N)C(=O)O; αMeS = C[C@](N)(CO)C(=O)O; Nle = CCCC[C@H](N)C(=O)O; Sar = CNCC(=O)O

As usually defined, the IC50 is the concentration that inhibits the measured activity by half. As a reminder, the Kd is the free concentration of one partner at which half of the binding sites on the other are occupied at equilibrium, for simple one-to-one binding. On to `CNCCCC[C@@H]1NC(=O)[C@@H]2CC[C@@H](C2)NC(=O)[C@H]([C@@H](C)c2c[nH]c3c(OC)cccc23)NC(=O)CN(C)C(=O)[C@H](Cc2ccc(O)cc2)NC(=O)[C@H](Cc2ccc(C(N)=O)cc2)NC(=O)[C@](C)(CO)NC(=O)[C@H](Cc2c[nH]c3c(Cl)cccc23)NC(=O)[C@H](Cc2ccncc2)NC(=O)[C@H](CC(N)=O)NC(=O)[C@H](CCC(=O)O)N(C)C(=O)[C@H](Cc2c[nH]c3ccccc23)NC(=O)[C@@H]2CC[C@@H](O)CN2C(=O)[C@H](Cc2ccncc2)NC1=O` [SEQ ID NO. 86] (cyclo([4Pal][Trp(7-Cl)][αMeS][Phe(4-CONH2)]Y[Sar][Trp(βS-Me,7-OMe)][X1][Lys(Me)][4Pal][Pip(5R-OH)]W[NMeE]N)), for which the IC50 in test [1] was 0.5 nM. In addition, the Kd in test [2] was 0.08 nM; on human TNFR2 ECD protein, more than 1000 nM.
On the same counts, the results for `COc1cccc2c([C@H](C)[C@@H]3NC(=O)CN(C)C(=O)[C@H](Cc4ccc(O)cc4)NC(=O)[C@H](Cc4ccc(C(N)=O)cc4)NC(=O)[C@](C)(CO)NC(=O)[C@H](Cc4c[nH]c5c(Cl)cccc45)NC(=O)[C@H](Cc4ccc(C(=O)O)cc4)NC(=O)[C@H](CC(N)=O)NC(=O)[C@H](CCC(=O)O)N(C)C(=O)[C@H](Cc4c[nH]c5ccccc45)NC(=O)[C@@H]4CNCCN4C(=O)[C@H](Cc4ccncc4)NC(=O)[C@H](CCCC(C)C)NC(=O)CSC[C@@H](C(N)=O)NC3=O)c[nH]c12` [SEQ ID NO. 93] ({CH2CO}-[X14][4Pal][Pip(4-aza)]W[NMeE]N[Phe(4-COOH)][Trp(7-Cl)][αMeS][Phe(4-CONH2)]Y[Sar][Trp(βS-Me,7-OMe)]C-NH2; thioether N-14) are 2.7 nM, 0.78 nM and more than 1000 nM.
On to `CCCC[C@@H]1NC(=O)CSC[C@@H](C(N)=O)NC(=O)[C@H]([C@@H](C)c2c(C)[nH]c3ccccc23)NC(=O)CN(C)C(=O)[C@H](Cc2ccc(O)cc2)NC(=O)[C@H](Cc2ccc(C(N)=O)cc2)NC(=O)[C@](C)(CO)NC(=O)[C@H](Cc2c[nH]c3c(Cl)cccc23)NC(=O)[C@H](Cc2ccncc2)NC(=O)[C@H](CC(N)=O)NC(=O)[C@H](CCC(=O)O)N(C)C(=O)[C@H](Cc2c[nH]c3ccccc23)NC(=O)[C@@H]2CC[C@@H](O)CN2C(=O)[C@H](Cc2ccncc2)NC1=O` [SEQ ID NO. 97] ({CH2CO}-[Nle][4Pal][Pip(5R-OH)]W[NMeE]N[4Pal][Trp(7-Cl)][αMeS][Phe(4-CONH2)]Y[Sar][X17]C-NH2; thioether N-14), for which the IC50 in test [1] was determined as 0.9 nM. Moreover, the Kd in test [2] is 0.08 nM; on human TNFR2 ECD protein, more than 1000 nM.
On to `CCCC[C@@H]1NC(=O)CSC[C@@H](C(N)=O)NC(=O)[C@H]([C@@H](C)c2c[nH]c3c(OC)cccc23)NC(=O)CN(C)C(=O)[C@H](Cc2ccc(O)cc2)NC(=O)[C@H](Cc2ccc(C(=O)O)cc2)NC(=O)[C@](C)(CO)NC(=O)[C@H](Cc2c[nH]c3c(Cl)cccc23)NC(=O)[C@H](Cc2ccncc2)NC(=O)[C@H](CC(N)=O)NC(=O)[C@H](CCC(=O)O)N(C)C(=O)[C@H](Cc2c[nH]c3ncccc23)NC(=O)[C@H](CO)NC(=O)[C@H]([C@@H](C)c2ccc(O)cc2)NC1=O` [SEQ ID NO. 46] ({CH2CO}-[Nle][X12]S[Trp(7-aza)][NMeE]N[4Pal][Trp(7-Cl)][αMeS][Phe(4-COOH)]Y[Sar][Trp(βS-Me,7-OMe)]C-NH2; thioether N-14), for which the IC50 in test [1] was 3 nM. For the same compound, the figures for the Kd (in test [2]; on human TNFR2 ECD protein) were 0.07 nM and more than 1000 nM, respectively.
